Laboratory results: US10974036B2, “Implantable device for long-term delivery of drugs” (Delpor, Inc., priority 2009, dated 2021)
In brackets after ≈: the same amount, converted by molar mass. Several values for one entry are separate records, joined by “and”; a condition that tells them apart may be missing. Equal entries are not always repeated. Where two headings read alike, the source gives them in different places.

Legend:
[1] = in vivo; conditions: human, plasma, iv
[2] = cited from earlier work
[3] = cited from earlier work; remark: listed apart in the source
[4] = 100 mg risperidone, PBS pH 7.4, 37° C.
Method: Two groups of drug delivery devices were assembled as follows. Cylindrical titanium tubes, 4 mm in diameter and 35 mm in length, were prepared. […] The reservoirs of the devices were filled with phosphate buffered saline (PBS) at pH 7.4 under reduced pressure. Each of the devices in Group B was fitted with two regenerated cellulose membranes (5000 Daltons molecular weight cut off) at each end of the cylindrical tube by sandwiching the membrane between an o-ring and titanium frit (5 micron pores), as illustrated in FIGS. 5A-5B. The devices in Group A were identical, except the cellulose membrane was omitted, as illustrated in FIGS. 4A-4B. The devices were then placed individually in tubes containing approximately 1 mL PBS. The tubes were placed on a rotating rack (1 revolution per hour) at 37° C.
Buffer was diluted to 20-50 micrograms/mL prior to measurement to insure that the concentration was within the linear range of the UV measurement. Buffer was replaced each day.

[5] = In vivo plasma concentration after subcutaneous implantation of devices in rats (Example 5, FIG. 12B); conditions: subcutaneous device containing risperidone only, first week
Method: For in vivo experiments, rats were anesthetized and devices placed subcutaneously in the dorsum, lateral to the midline, using a trocar. Whole blood samples were obtained by tail vein venous puncture. Plasma was immediately separated from formed elements by centrifugation. […] The lower limit of quantitation was 0.10 ng/mL.

[6] = PBS, 37° C.
Method: In yet another study, devices were prepared as described herein an tested in vitro and in vivo.
Two groups of devices (n=6) were prepared. The main body of each device consisted of a cylindrical titanium tube, definining an internal reservoir. The tubes were 35 mm in length, with an outer diameter (OD) of 4.3 mm and an inner diameter (ID) of about 3 mm (Peridot Manufacturing, Pleasanton, Calif.). Both ends of each tube were tapered (lathed) so as to accept a press cap which served to retain a porous partition, as illustrated in FIGS. 4-5. The first group of devices was fitted on one end with a titanium sintered frit having a diameter 3.5 mm, a depth 0.5 mm, and a 5 micron nominal particle retention size (Applied Porous Materials, Farmington, Conn.). The frit was secured in each tube by placing the tube horizontally in a holder, and then positioning over the open end, in sequence, the frit, an o-ring and the press cap.
A 2.5 mm stainless steel ball was placed in the reservoir to provide mixing. A second frit was sealed to the remaining open end of the reservoir using the same procedure as described above for the other end. […]
Both groups of devices were equally split, each subgroup of 3 devices destined for either in vitro or in vivo testing. In vitro release rate was determined by submerging the devices in 1 mL PBS held in screw cap cryo-vials. […]

[7] = In vitro release of risperidone, Franz-type diffusion cells with different porous partitions (Example 1); assay type: physicochemical; conditions: after 3-4 day equilibration phase, suspension with PLGA, room temperature
Text: As described in Example 1, typical Franz-type diffusion cells were fitted with a porous partition separating a donor chamber from a receptor chamber. The partitions were selected to span a wide range of pore sizes (i.e., molecular weight cut-off or “MWCO”, values or nominal pose diameter) The porous partitions selected for use in this study had molecular weight cut-off values of 100,000 Daltons and 3,000 Daltons. In addition, a porous partition in the form of a […] polyvinyldenefluoride membrane filter (Durapore®) was used.
Sustained, substantially zero-order release rate was obtained, as best seen in FIG. 7B.
Typical Franz-type diffusion cells were fitted with porous partitions separating a donor chamber from a receptor chamber. The porous partitions were membranes with pore sizes of 3,000 Daltons molecular weight cut-off, 100,000 Daltons molecular weight cut-off and a 0.45 micron polyvinyldenefluoride membrane filter (Durapore®). […] The cells were maintained at room temperature. […] Buffer was replaced each day.

| clearance [1] [mL/min] | SMILES | Half-life ([2]; in vivo) [h] | Target Steady state plasma conc ([2]; in vivo) [ng/mL] | CL(L/hr) (iv) [2] | Bioavailability oral [2] [%] | Water solubility (mg/mL) acidic pH ([3]; acidic pH) [mg/mL] | Water solubility (mg/mL) neutral pH [3] [mg/mL] | further results |
| --- | --- | --- | --- | --- | --- | --- | --- | --- |
| 867 | CN1CC2c3ccccc3Oc3ccc(Cl)cc3C2C1 (stereo not shown) [Asenapine, asenapine] | 24 | 2.1 | 52 L/h | < 2 | 13 | 3.0 | plasma clearance ([2]; in vivo): 52 L/h; Bioavailability sublingual ([2]; sublingual): 30%; solubility ([3]; in 0.1N HCl): 13000 µg/mL (≈ 45.5 mM); water solubility ([3]; pH 7-7.4): 3000 µg/mL (≈ 10.5 mM); water solubility ([3]; pH 7.0): 3000 µg/mL (≈ 10.5 mM) |
| – | Cc1nc2n(c(=O)c1CCN1CCC(c3noc4cc(F)ccc34)CC1)CCCC2O (stereo not shown) [Paliperidone, paliperidone] | 24 | – | – | – | – | 0.54 | Water solubility acidic pH relative to neutral pH ([3]; acidic pH): 100 x neutral |
| – | Cc1nc2n(c(=O)c1CCN1CCC(c3noc4cc(F)ccc34)CC1)CCCC2 [Risperidone, risperidone] | – | 20 | – | – | – | – | release rate (5 mg 85:15 PLGA in suspension (FIG. 9)): 0.25 mg/day; release rate (10 mg 85:15 PLGA in suspension (FIG. 9)): 0.43 mg/day; release rate (15 mg 85:15 PLGA in suspension (FIG. 9)): 0.64 mg/day; average release rate ([4]; devices with 5 mg 50:50 PLGA and 15 mg 85:15 PLGA (Group B)): 1 to 1.2 mg/day; release rate ([4]; devices without PLGA (Group A)): less than 0.05 mg/day; plasma levels of risperidone (plus 9-hydroxyrisperidone) [5]: barely detectable; in vitro release rate ([6]; devices with PLGA (15 mg 50:50 and 50 mg 85:15), maintained for 30 days): above 0.4 mg/day; in vitro release rate ([6]; devices without PLGA, throughout 30 days): less than 0.05 mg/day; release rate of risperidone ([7]; 0.45 polyvinyldenefluoride membrane filter (Durapore)): 70 µg/day; release rate of risperidone ([7]; porous partition 3,000 Dalton molecular weight cut-off): 100 µg/day; release rate of risperidone ([7]; porous partition 100,000 Dalton molecular weight cut-off): 200 µg/day |
| – | Cc1cc2c(s1)Nc1ccccc1N=C2N1CCN(C)CC1 [Olanzapine, olanzapine] | – | 30 | – | 60 | – | – | – |
| 667 | O=C(CCCN1CCC(O)(c2ccc(Cl)cc2)CC1)c1ccc(F)cc1 [Haloperidol, haloperidol] | 29 | 2 | 42 L/h and 22 L/h | 65 | 4.2 | 0.025 | – |
| 39.6 | O=C1CCc2ccc(OCCCCN3CCN(c4cccc(Cl)c4Cl)CC3)cc2N1 [Aripiprazole, aripiprazole] | 3 | 100 | 2.37 L/h | – | – | – | – |
